The results in this text go back to patent US12145915B1 (priority 2023, dated 2024).

For experiment [1], the system named is XDR strain of Mycobacterium tuberculosis. Kind of experiment: microbe, parasite or virus in culture. The experiment is classed as cell-based. Particulars: read-out: Anti-tubercular activity against Mycobacterium tuberculosis (μg/mL) XDR (MIC).
Experiment [2] deals with MDR strain of Mycobacterium tuberculosis. Kind of experiment: microbe, parasite or virus in culture. Particulars: read-out: Anti-tubercular activity against Mycobacterium tuberculosis (μg/mL) MDR (MIC). The experiment is classed as cell-based.

SMILES strings stand for the structures. In brackets after ≈: the same amount, converted by molar mass.

For the compound `Cc1nc(-c2ccc(OCC(C)C)c(C#N)c2)sc1C(=O)N/N=C/c1ccc(F)c(Oc2ccccc2)c1` [KNV-TZL1, (E)-2-(3-Cyano-4-isobutoxyphenyl)-N-(4-fluoro-3-phenoxybenzylidene)-4-methylthiazole-5-carbohydrazide], the MIC worked out at 128 µg/mL (≈ 242 µM) in experiment [1] and 32 µg/mL (≈ 60.5 µM) in experiment [2].
For `COc1cc(/C=N/NC(=O)c2sc(-c3ccc(OCC(C)C)c(C#N)c3)nc2C)ccc1O` [KNV-TZL2, (E)-2-(3-Cyano-4-isobutoxyphenyl)-N-(4-hydroxy-3-methoxybenzylidene)-4-methylthiazole-5-carbohydrazide], in that order: 64 µg/mL (≈ 138 µM) and 64 µg/mL (≈ 138 µM).
